Experimental data from patent US20260242776A1, “Modification of tRNA T-Stem for Enhancing N-Methyl Amino Acid Incorporation” (priority 2019, published 2026).
*1 amine or outer side, *2 acyl side, *3 side chain or, on linkers, in order; H or OH if unused. Where no end group is shown, it is not given here. [ ]: non-standard residue; d: D form. The star is where a group is joined. MeYm = N-methyl-p-methoxyphenylalanine, COc1ccc(C[C@@H](C(=O)[*:2])N(C)[*:1])cc1; NMeY = CN[C@@H](Cc1ccc(O)cc1)C(=O)O; NMeF = CN[C@@H](Cc1ccccc1)C(=O)O; NMeNle = CCCC[C@H](NC)C(=O)O; NMeNva = CCC[C@H](NC)C(=O)O; NMeV = CN[C@H](C(=O)O)C(C)C; NMeS = CN[C@@H](CO)C(=O)O; NMeA = CN[C@@H](C)C(=O)O; Sar = CNCC(=O)O; For = O=C*

Tested on: FIT system (reconstituted E. coli cell-free translation system)
Experiment: In vitro translation in FIT system, peptide expression level by tricine-SDS-PAGE autoradiography
Type: biochemical
Conditions: mRNA14, 9 different ^MeAAs; control translation using 20 pAAs; FIG. 6d, 6e

P14: 32-mer model peptide composed of 9 respectively different ^MeAAs and 14 pAAs, translated from mRNA14 (For-MKKK[NMeS]HM[Sar][NMeV]TE[NMeNle]S[NMeY][NMeA]QN[MeYm]GW[NMeNva]R[NMeF]PDYKDDDDK)
Expression efficiency relative to the control: 34%
